Reference: patent US12059425B2, “Heterocyclic compounds and uses thereof” (Kumquat Biosciences Inc., priority 2022, dated 2024)

Tests used:
wildtype K-Ras = target: T1, wildtype K-Ras (Homo sapiens, UniProt P01116); assay: PPI-HTRF assay, wildtype K-Ras / SOS1 interaction; format: biochemical; details: HTRF, K-Ras wt; read-out: PPI-HTRF-5 nM (K-Ras wt IC50)
T1 construct: made in house; host or cells: E. coli, e.g. BL21 (DE3)
Outline: (§1)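 Disruption of K-Ras–SOS1 binding is followed by FRET between a europium-labelled anti-GST antibody on GST-K-Ras and an XL665-labelled anti-His antibody on His-hSOS1. Protein concentrations are set in the same molar range as the IC50s measured. The 665/620 nm ratio gives IC50, with duplicates tested at 10, 2.5, 0.63, 0.16, 0.04 and 0.01 μM.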

A549 cells = assay: Ras cellular assay, cell proliferation A549; format: cell-based; details: Homo sapiens
Outline: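 G12S-mutant A549 cells (800/well) in RPMI-1640 plus 10% heat-inactivated FBS, standard or ultra-low attachment 384-well plates, dosed the day after plating with a 10-point 3-fold series. Viability by CellTiter-Glo luminescence about 6 days later; IC50 from four-parameter fit.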

K-Ras G12S = target: T2, K-Ras G12S (Homo sapiens, UniProt P01116, G12S); assay: PPI-HTRF assay, K-Ras G12S / SOS1 interaction; format: biochemical; details: read-out: PPI-HTRF-5 nM (K-Ras G12S IC50)
T2 construct: made in house; host or cells: E. coli, e.g. BL21 (DE3)
Outline: as §1

K-Ras G12D = target: T3, K-Ras G12D (Homo sapiens, UniProt P01116, G12D); assay: PPI-HTRF assay, K-Ras G12D / SOS1 interaction; format: biochemical; details: HTRF, K-Ras G12D; read-out: PPI-HTRF-5 nM (K-Ras G12D IC50)
T3 construct: made in house; host or cells: E. coli, e.g. BL21 (DE3)
Outline: as §1

K-Ras G12V = target: T4, K-Ras G12V (Homo sapiens, UniProt P01116, G12V); assay: PPI-HTRF assay, K-Ras G12V / SOS1 interaction; format: biochemical; details: HTRF, K-Ras G12V; read-out: PPI-HTRF-5 nM (K-Ras G12V IC50)
T4 construct: made in house; host or cells: E. coli, e.g. BL21 (DE3)
Outline: as §1

GP2D cells = assay: Ras cellular assay, cell proliferation GP2D; format: cell-based
Outline: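 GP2D cells (G12D Ras mutant) seeded (e.g., 800/well) and treated the next day with a dilution series (e.g., 9-point, 3-fold). After approximately 5 days, viability measured by CellTiter-Glo luminescence; IC50 from four-parameter fit.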

SW620 cells = assay: Ras cellular assay, cell proliferation SW620; format: cell-based; details: Homo sapiens, SW-620
Excerpt: For example, this assay can be also used to assess selective growth inhibition of a mutant Ras protein relative to a wildtype, or relative to a different mutant Ras protein.

T4 sequence (P01116 1-188 isoform P01116-2 G12V): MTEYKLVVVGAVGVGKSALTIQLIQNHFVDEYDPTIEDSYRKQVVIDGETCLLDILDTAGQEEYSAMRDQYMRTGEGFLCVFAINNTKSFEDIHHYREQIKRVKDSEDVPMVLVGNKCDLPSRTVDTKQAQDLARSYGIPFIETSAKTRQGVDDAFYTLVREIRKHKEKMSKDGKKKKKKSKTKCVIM
T2 sequence (P01116 1-188 isoform P01116-2 G12S): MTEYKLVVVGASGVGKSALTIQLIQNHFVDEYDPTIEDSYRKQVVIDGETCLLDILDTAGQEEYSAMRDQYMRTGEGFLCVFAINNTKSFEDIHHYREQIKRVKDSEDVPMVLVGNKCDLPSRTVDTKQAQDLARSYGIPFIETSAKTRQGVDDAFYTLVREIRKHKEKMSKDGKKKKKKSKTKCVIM
T3 sequence (P01116 1-188 isoform P01116-2 G12D): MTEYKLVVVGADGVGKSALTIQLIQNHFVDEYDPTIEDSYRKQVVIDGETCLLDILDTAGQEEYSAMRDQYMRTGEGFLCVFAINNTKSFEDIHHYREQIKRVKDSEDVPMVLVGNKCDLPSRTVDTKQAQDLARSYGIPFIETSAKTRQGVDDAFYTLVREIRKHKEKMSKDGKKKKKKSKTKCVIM
T1 sequence (P01116 1-188 isoform P01116-2): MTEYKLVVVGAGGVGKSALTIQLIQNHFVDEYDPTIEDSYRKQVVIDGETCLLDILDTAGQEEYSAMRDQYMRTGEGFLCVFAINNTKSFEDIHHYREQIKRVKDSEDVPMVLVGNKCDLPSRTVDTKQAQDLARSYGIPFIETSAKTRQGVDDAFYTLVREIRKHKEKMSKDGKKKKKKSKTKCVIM

Row | IC50 (wildtype K-Ras) | IC50 (A549 cells) | IC50 (K-Ras G12S) | IC50 (K-Ras G12D) | IC50 (K-Ras G12V) | IC50 (SW620 cells) | Compound | IC50 (GP2D cells)
1 | < 5 µM | > 5 µM | < 5 µM | < 5 µM | < 5 µM | > 5 µM | CC(=O)N1CC2Oc3c(Cl)c(-c4ccc(F)c5sc(N)c(C#N)c45)c(F)c4nc(OC[C@@]56CCCN5C[C@H](F)C6)nc(c34)N(C)C2C1 (stereo partly drawn) [compound 172, 4-(9-acetyl-6-chloro-4-fluoro-2-(((2R,7aS)-2-fluorotetrahydro-1H-pyrrolizin-7a(5H)-yl)methoxy)-11-methyl-7a,8,9,10,10a,11-hexahydropyrrolo[3′,4′:2,3][1,4]oxazepino [5,6,7-de]quinazolin-5-yl)-2-amino-7-fluorobenzo[b]thiophene-3-carbonitrile] | > 5 µM
2 | < 5 µM | < 5 µM | < 5 µM | < 5 µM | < 5 µM | < 5 µM | N#Cc1c(N)sc2c(F)ccc(-c3c(Cl)c4c5c(nc(OC[C@@]67CCCN6C[C@H](F)C7)nc5c3F)N3CCN(C(=O)C(F)F)CCC3CO4)c12 (stereo partly drawn) [compound 149, 2-amino-4-(6-chloro-11-(2,2-difluoroacetyl)-4-fluoro-2-(((2R,7aS)-2-fluorotetrahydro-1H-pyrrolizin-7a(5H)-yl)methoxy)-8a,9,10,11,12,13-hexahydro-8H-[1,4]diazepino[7′,1′:3,4][1,4]oxazepino [5,6,7-de]quinazolin-5-yl)-7-fluorobenzo[b]thiophene-3-carbonitrile] | < 5 µM
